Measured values taken from article PMC3365038, “Optimization of a Novel Peptide Ligand Targeting Human Carbonic Anhydrase IX” (PLoS ONE, 2012).
Like-named read-outs stand apart in the source and are kept apart here. Peptide text beside a SMILES is read from it.

Tests used:
in vivo = assay: in vivo; parameters: species or system Balb/c nu/nu mice; settings: female, Balb/c nu/nu, mouse, iv, 1 MBq, total radioactivity, Tumor to organ ratio
Method: Organ distribution studies were performed in 9-week-old female Balb/c nu/nu mice, carrying subcutaneously transplanted SKRC 52 tumors. Animals were obtained from Charles River WIGA and housed in VentiRacks (BioZone Global). For tumor transplantation, SKRC 52 cells were grown to 90% confluence, harvested with PBS/ethylene diamine tetraacetic acid, resuspended in Falcon Matrigel-Matrix (BD) and kept on ice. 200 µl of Matrigel-Matrix cell suspension were injected subcutaneously into the anterior region of the mouse trunk and the tumors were grown to a size of 1.0 cm^3. ^131I-labeled CaIX-P1-4-10 was injected into the tail vein of the animals (approximately 1 MBq) and at 15 min, 60 min and 240 min after injection the animals were sacrificed. Tumor, blood and selected tissues (heart, spleen, liver, kidney, muscle, intestinum and brain) were removed, drained of blood, weighed and the radioactivity was measured in a γ-counter (LB 951G; Berthold Technologies). Also 3 aliquots of the tracer solution used for injection were measured. The organ uptake was calculated as percentage injected dose per gram tissue (% ID/g).

[1] = system: CA IX positive human renal cell carcinoma SKRC 52 cells; assay: In vitro binding of 125I-labeled peptides on SKRC 52 cells; settings: for binding capacity on SKRC 52 cells compared to the native CaIX-P1 peptide: 125I-labeled fragments, result in words; for binding after 10 minutes compared to 30 minutes incubation: 125I-labeled peptides
Method: (§1) For binding experiments 5×10^5 SKRC 52 or BxPC3 cells were seeded into 6-well plates and cultivated in 3 mL of incubation medium at 37°C for 24 h. After cell blocking with RPMI 1640 (without FCS) containing 1% BSA, the medium was replaced with 1 mL of fresh medium (without FCS) containing 0.8–1.2×10^6 cpm of ^125I-labeled peptide and incubation was performed for time periods varying from 10 min to 2 h at 37°C. To determine specific versus nonspecific binding, the cells were incubated with unlabeled competitors at concentrations varying from 10^−4 to 10^−10 mol/L. Octreotide was used as negative control competitor. After incubation the medium was removed and the cells were washed three times with 1 mL ice cold PBS in order to remove the unbound radiolabeled peptide. Subsequently, the cells were lysed with 0.5 mL NaOH 0.3 mol/L and the radioactivity was measured with a γ-counter. Bound radioactivity was calculated as percentage applied dose per 10^6 cells. CA IX negative BxPC3 cells were used as negative control.

SKRC 52 cells [2] = type: binding, human; settings: for inhibition of the radioligand binding: 10^−4 mol/L competitor concentration; for inhibition of the radioligand binding / binding inhibition: 125I-CaIX-P1-4-10 on SKRC 52 cells; for binding inhibition: competitor concentration of 10^−5 mol/L
Method: as §1

SKRC 52 cells [3] = assay: In vitro (medium) stability of 125I-labeled peptide on SKRC 52 cells; type: in vitro ADME, human
Method: (§2) Radio-HPLC was performed on an Agilent 1100 HPLC system equipped with a radioactivity detector (GABI Star, Raytest GmbH, Straubenhardt, Germany) using a Chromolith Performance RP-18e column (100×3 mm; Merck AG Darmstadt, Germany) eluted with a linear gradient (eluent A: 0.1% TFA in water; eluent B: 0.1% TFA in acetonitrile; 0–30% B in 10 min, flow rate: 2 mL/min).
(§3) ^125I-labeled peptide was incubated at 37°C on SKRC 52 and BxPC3 cells. At time points varying from 10 min to 2 h aliquots were taken and centrifuged for 5 min at 13,000 rpm. The supernatant was analyzed by HPLC with H2O∶CH3CN, 0–30% in 10 min.

BxPC3 cells = assay: In vitro (medium) stability of 125I-labeled peptide on BxPC3 cells; type: in vitro ADME, human; settings: 37°C, 10 min to 2 h, supernatant by radio-HPLC
Method: as §2, §3

Serum stability assay = type: in vitro ADME; settings: radiolabeled peptide 5 MBq in 500 µL human serum (Sigma Aldrich, H4522), 37°C, aliquots by radio-HPLC
Method: as §2
Metabolic stability was investigated in human serum (Sigma Aldrich, H4522). 5 MBq of radiolabeled peptide was dissolved in human serum (500 µL) and incubated at 37°C. The stability of the labeled peptide was monitored by analyzing aliquots (25 µl) via radio-HPLC at selected time points.

## CC(C)C[C@H](NC(=O)[C@@H]1CCCN1C(=O)[C@@H](NC(=O)[C@H](Cc1c[nH]cn1)NC(=O)[C@@H](N)CC(N)=O)C(C)C)C(=O)N[C@@H](CO)C(=O)N1CCC[C@H]1C(=O)N[C@H](Cc1ccc(O)c(I)c1)C(N)=O [^131I-CaIX-P1-4-10] (HELM PEPTIDE1{N.H.V.P.L.S.P.[O=C([C@@H](Cc1ccc(O)c(I)c1)N[*:1])[*:2]].[am]}$$$$V2.0; N-terminus assumed)
In vivo; Blood
  tissue to tissue ratio at 0.25 h: 0.63
  tissue to tissue ratio at 1 h: 0.69
  tissue to tissue ratio at 4 h: 0.67
In vivo; Brain
  tissue to tissue ratio at 0.25 h: 13.9
  tissue to tissue ratio at 1 h: 14.9
  tissue to tissue ratio at 4 h: 15.1
In vivo; Heart
  tissue to tissue ratio at 0.25 h: 1.63
  tissue to tissue ratio at 1 h: 2.09
  tissue to tissue ratio at 4 h: 1.84
In vivo; Kidney
  tissue to tissue ratio at 0.25 h: 0.56
  tissue to tissue ratio at 1 h: 0.73
  tissue to tissue ratio at 4 h: 0.61
In vivo; Liver
  tissue to tissue ratio at 0.25 h: 1.32
  tissue to tissue ratio at 1 h: 1.65
  tissue to tissue ratio at 4 h: 1.49
In vivo; Lung
  tissue to tissue ratio at 0.25 h: 0.86
  tissue to tissue ratio at 1 h: 0.88
  tissue to tissue ratio at 4 h: 0.92
In vivo; Muscle
  tissue to tissue ratio at 0.25 h: 3.36
  tissue to tissue ratio at 1 h: 3.39
  tissue to tissue ratio at 4 h: 2.53
In vivo; Spleen
  tissue to tissue ratio at 0.25 h: 1.06
  tissue to tissue ratio at 1 h: 1.39
  tissue to tissue ratio at 4 h: 1.35

## TNHVPLSPy [CaIX-P1-3-10, fragment representing the middle part of CaIX-P1 (TNHVPLSPy)]
[1]
  binding capacity on SKRC 52 cells compared to the native CaIX-P1 peptide: up to five-fold higher binding capacity
  binding after 10 minutes compared to 30 minutes incubation: higher after 10 minutes as compared to 30 minutes incubation

## HVPLSPKy [CaIX-P1-5-12]
[1]
  binding capacity on SKRC 52 cells compared to the native CaIX-P1 peptide: significantly reduced binding activity

## YNTNHVPL [CaIX-P1-1-8, 8-amino acid fragment of CaIX-P1 (YNTNHVPL)]
[1]
  binding capacity on SKRC 52 cells compared to the native CaIX-P1 peptide: significantly reduced binding activity

## YNTNHVPLSPKY [CaIX-P1]
[1]
  binding after 10 minutes compared to 30 minutes incubation: higher after 10 minutes as compared to 30 minutes incubation
SKRC 52 cells [2]
  inhibition of the radioligand binding: over 95%
  binding inhibition: about 80%
SKRC 52 cells [2]; unlabeled competitor against 125I-CaIX-P1-4-10 on SKRC 52 cells, read-out: IC50
  IC50: 1.5 µM

## CC(C)C[C@H](NC(=O)[C@@H]1CCCN1C(=O)[C@@H](NC(=O)[C@H](Cc1c[nH]cn1)NC(=O)[C@@H](N)CC(N)=O)C(C)C)C(=O)N[C@@H](CO)C(=O)N1CCC[C@H]1C(=O)N[C@H](Cc1ccc(O)cc1)C(N)=O [CaIX-P1-4-10] (HELM PEPTIDE1{N.H.V.P.L.S.P.[dY].[am]}$$$$V2.0; N-terminus assumed)
[1]
  binding capacity on SKRC 52 cells compared to the native CaIX-P1 peptide: almost six-fold binding
SKRC 52 cells [2]
  inhibition of the radioligand binding: over 95%
  binding inhibition: about 95%
SKRC 52 cells [2]; 24 h
  IC50: 0.13 µM
SKRC 52 cells [3]; 125I-labeled peptide on SKRC 52 cells, 37°C, 120 min incubation, supernatant by radio-HPLC
  degradation in medium at 120 min: completely degraded
SKRC 52 cells [3]; 125I-labeled peptide on SKRC 52 cells, 37°C, after 60 min incubation, supernatant by radio-HPLC
  activity (intact radioligand) measured in medium: 30%
SKRC 52 cells [3]; comparison of HPLC chromatograms of C-terminal fragments with SKRC 52 cell medium supernatants
  degradation site in the sequence: degraded between ^6S and ^7P
BxPC3 cells
  radioligand degradation in medium on BxPC3 cells: No radioligand degradation
Serum stability assay
  Serum half life: 1.5 h
